From paper PMC2248166, “Quantitative peptide binding motifs for 19 human and mouse MHC class I molecules derived using positional scanning combinatorial peptide libraries” (Immunome Research, 2008)
Where a SMILES comes first, the peptide text is derived from it.

molecular target: HLA A*3201 (Homo sapiens, UniProt P04439, A270S/D101S/D185E/E176V/E277Q/F133L/G103R/G107R/G231S/H175R/I121M/I218V/I322F/K168Q/L105A/L300P/L318F/M331R/P208A/P217A/Q94H/R106L/R138Q/S129P/T104I/T323A/T345S/V100E/V321M/V358M); assay: biochemical; assay type: binding

Row | SMILES | IC50 [nM]
1 | CC[C@H](C)[C@H](NC(=O)[C@H](CO)NC(=O)[C@@H](NC(=O)[C@@H](NC(=O)[C@H](Cc1ccc(O)cc1)NC(=O)[C@H](CC(N)=O)NC(=O)[C@H](CO)NC(=O)[C@H](CC(C)C)NC(=O)[C@@H](N)Cc1c[nH]cn1)[C@@H](C)CC)C(C)C)C(=O)O [3102.0449] (H-HLSNYIVSI-OH) | 0.99
2 | CC[C@H](C)[C@H](NC(=O)[C@@H](NC(=O)[C@H](CC(N)=O)NC(=O)[C@H](CO)NC(=O)[C@H](CC(N)=O)NC(=O)[C@H](C)NC(=O)[C@@H](NC(=O)[C@@H](NC(=O)[C@@H](N)CO)[C@@H](C)O)[C@@H](C)CC)[C@@H](C)CC)C(=O)O [3102.0451] (H-STIANSNII-OH) | 14
3 | CC[C@H](C)[C@H](NC(=O)[C@H](CO)NC(=O)[C@H](CC(C)C)NC(=O)[C@H](CO)NC(=O)[C@H](CCCNC(=N)N)NC(=O)[C@H](Cc1c[nH]c2ccccc12)NC(=O)[C@@H](NC(=O)[C@@H](NC(=O)[C@H](C)N)[C@@H](C)O)[C@@H](C)CC)C(=O)O [3102.0452] (H-ATIWRSLSI-OH) | 1.9
4 | CC[C@H](C)[C@H](NC(=O)[C@H](CCC(N)=O)NC(=O)[C@H](CCC(=O)O)NC(=O)[C@H](CC(=O)O)NC(=O)[C@@H](NC(=O)[C@@H](N)CCSC)[C@@H](C)O)C(=O)N[C@@H](Cc1ccc(O)cc1)C(=O)N[C@@H](C)C(=O)N[C@@H](Cc1ccccc1)C(=O)O [3102.0453] (H-MTDEQIYAF-OH) | 18
5 | CC[C@H](C)[C@H](NC(=O)[C@@H](NC(=O)[C@H](CC(C)C)NC(=O)[C@H](CC(C)C)NC(=O)[C@H](CC(N)=O)NC(=O)[C@H](Cc1ccc(O)cc1)NC(=O)[C@H](CCSC)NC(=O)[C@H](CC(C)C)NC(=O)[C@@H](N)CC(C)C)[C@@H](C)O)C(=O)O [3102.0454] (H-LLMYNLLTI-OH) | 72
6 | CC[C@H](C)[C@H](NC(=O)[C@@H](NC(=O)[C@@H](NC(=O)[C@H](CC(C)C)NC(=O)[C@H](CC(C)C)NC(=O)[C@H](CC(N)=O)NC(=O)[C@H](Cc1ccc(O)cc1)NC(=O)[C@H](CCSC)NC(=O)[C@@H](N)CC(C)C)[C@@H](C)O)[C@@H](C)CC)C(=O)O [3102.0455] (H-LMYNLLTII-OH) | 30
7 | CC[C@H](C)[C@H](NC(=O)[C@@H](N)CCCCN)C(=O)N[C@@H](CC(N)=O)C(=O)N[C@@H](CC(N)=O)C(=O)N[C@@H](Cc1ccccc1)C(=O)N[C@@H](C)C(=O)N[C@@H](CC(N)=O)C(=O)N[C@@H](CCC(=O)O)C(=O)N[C@@H](Cc1ccccc1)C(=O)O [3102.0456] (H-KINNFANEF-OH) | 2.1
8 | CC[C@H](C)[C@H](NC(=O)[C@@H](NC(=O)[C@@H](N)CCCCN)[C@@H](C)O)C(=O)N[C@@H](Cc1ccccc1)C(=O)N[C@@H](CC(C)C)C(=O)N[C@@H](CO)C(=O)N[C@@H](CCC(=O)O)C(=O)N1CCC[C@H]1C(=O)N[C@@H](Cc1ccc(O)cc1)C(=O)O [3102.0457] (H-KTIFLSEPY-OH) | 2.9
9 | CSCC[C@H](NC(=O)[C@@H](NC(=O)[C@@H](N)CCCCN)[C@@H](C)O)C(=O)N[C@@H](C)C(=O)N1CCC[C@H]1C(=O)N[C@H](C(=O)N[C@@H](Cc1c[nH]cn1)C(=O)N[C@H](C(=O)N[C@@H](Cc1ccc(O)cc1)C(=O)O)[C@@H](C)O)C(C)C [3102.0458] (H-KTMAPVHTY-OH) | 4.6
10 | CC[C@H](C)[C@H](NC(=O)[C@H](Cc1ccc(O)cc1)NC(=O)[C@H](CC(C)C)NC(=O)[C@H](CO)NC(=O)[C@@H](N)CCCCN)C(=O)N[C@H](C(=O)N[C@@H](CC(N)=O)C(=O)N[C@H](C(=O)N[C@@H](CC(C)C)C(=O)O)[C@@H](C)O)[C@@H](C)O [3102.0459] (H-KSLYITNTL-OH) | 0.52
11 | CC[C@H](C)[C@H](NC(=O)[C@H](CO)NC(=O)[C@H](CCSC)NC(=O)[C@H](CC(C)C)NC(=O)[C@@H](N)CCCNC(=N)N)C(=O)N[C@@H](CC(N)=O)C(=O)N[C@@H](CCCNC(=N)N)C(=O)NCC(=O)N[C@@H](Cc1ccccc1)C(=O)O [3102.0465] (H-RLMSINRGF-OH) | 3
12 | CC[C@H](C)[C@H](NC(=O)[C@H](Cc1ccc(O)cc1)NC(=O)[C@@H](NC(=O)[C@@H](NC(=O)[C@@H](NC(=O)[C@H](CCSC)NC(=O)[C@@H](NC(=O)[C@@H](N)CCCCN)[C@@H](C)O)[C@@H](C)O)[C@@H](C)O)C(C)C)C(=O)N[C@@H](CC(C)C)C(=O)O [3102.0466] (H-KTMTTVYIL-OH) | 14
13 | CC[C@H](C)[C@H](NC(=O)[C@@H]1CCCN1C(=O)[C@H](Cc1c[nH]cn1)NC(=O)[C@H](CC(N)=O)NC(=O)[C@@H](NC(=O)[C@H](CC(=O)O)NC(=O)[C@H](CCSC)NC(=O)[C@@H](NC(=O)[C@@H](N)CO)[C@@H](C)O)C(C)C)C(=O)O [3102.0467] (H-STMDVNHPI-OH) | 7.4
14 | CC(C)C[C@H](NC(=O)[C@H](CO)NC(=O)[C@H](CC(C)C)NC(=O)[C@@H](NC(=O)[C@H](CC(C)C)NC(=O)[C@H](Cc1c[nH]cn1)NC(=O)[C@H](CC(N)=O)NC(=O)[C@H](CC(C)C)NC(=O)[C@H](C)N)C(C)C)C(=O)O [3102.0469] (H-ALNHLVLSL-OH) | 41
15 | CC[C@H](C)[C@H](NC(=O)[C@H](CCC(=O)O)NC(=O)[C@@H](NC(=O)[C@@H](NC(=O)[C@H](CCC(=O)O)NC(=O)[C@H](CC(N)=O)NC(=O)[C@@H](NC(=O)[C@@H](N)CCCCN)[C@@H](C)CC)C(C)C)C(C)C)C(=O)N[C@@H](Cc1ccccc1)C(=O)O [3102.0471] (H-KINEVVEIF-OH) | 19
16 | CC[C@H](C)[C@H](NC(=O)[C@@H](NC(=O)[C@@H](N)CCCCN)[C@@H](C)O)C(=O)N[C@@H](CC(N)=O)C(=O)N[C@@H](Cc1ccc(O)cc1)C(=O)N[C@@H](CO)C(=O)N[C@@H](Cc1ccccc1)C(=O)N[C@@H](Cc1ccccc1)C(=O)N[C@@H](CC(C)C)C(=O)O [3102.0472] (H-KTINYSFFL-OH) | 1
17 | CC[C@H](C)[C@H](NC(=O)[C@H](CO)NC(=O)[C@H](CC(C)C)NC(=O)[C@@H](NC(=O)[C@H](CO)NC(=O)[C@H](C)NC(=O)[C@H](CC(C)C)NC(=O)[C@@H](NC(=O)[C@@H](N)CCC(N)=O)[C@@H](C)CC)[C@@H](C)CC)C(=O)O [3102.0474] (H-QILASILSI-OH) | 22
18 | CC[C@H](C)[C@H](NC(=O)CNC(=O)[C@H](CC(C)C)NC(=O)[C@@H](NC(=O)[C@H](CC(C)C)NC(=O)[C@H](Cc1ccc(O)cc1)NC(=O)[C@H](CCSC)NC(=O)[C@@H](NC(=O)[C@@H](N)CCSC)[C@@H](C)CC)C(C)C)C(=O)O [3102.0477] (H-MIMYLVLGI-OH) | 98
19 | CC[C@H](C)[C@H](NC(=O)[C@@H](N)CCCCN)C(=O)N[C@@H](CC(N)=O)C(=O)N[C@@H](CCSC)C(=O)N[C@@H](CCC(N)=O)C(=O)N[C@H](C(=O)N[C@@H](CC(C)C)C(=O)N[C@@H](CC(C)C)C(=O)N[C@@H](Cc1ccccc1)C(=O)O)[C@@H](C)O [3102.0488] (H-KINMQTLLF-OH) | 10
20 | CC[C@H](C)[C@H](NC(=O)[C@H](CC(N)=O)NC(=O)[C@H](Cc1ccccc1)NC(=O)[C@@H](NC(=O)[C@H](CCCCN)NC(=O)[C@H](Cc1ccccc1)NC(=O)[C@H](CC(N)=O)NC(=O)[C@@H](NC(=O)[C@H](C)N)[C@@H](C)CC)[C@@H](C)CC)C(=O)O [3102.0489] (H-AINFKIFNI-OH) | 22
21 | CC[C@H](C)[C@H](NC(=O)[C@@H](NC(=O)[C@@H](N)CCCCN)[C@@H](C)O)C(=O)N[C@@H](Cc1ccc(O)cc1)C(=O)N[C@@H](CC(C)C)C(=O)N[C@@H](CC(C)C)C(=O)N[C@@H](CO)C(=O)N[C@@H](CC(C)C)C(=O)N[C@@H](Cc1ccccc1)C(=O)O [3102.0490] (H-KTIYLLSLF-OH) | 10
